Results on 17 compounds are retold here after ChEMBL document CHEMBL1136518, “Potent, selective inhibitors of protein tyrosine phosphatase 1B” (Bioorg Med Chem Lett, 2003).

Assay [1] deals with T1, Tyrosine-protein phosphatase non-receptor type 1 (Homo sapiens, UniProt P18031).
T1 sequence (P18031 whole entry): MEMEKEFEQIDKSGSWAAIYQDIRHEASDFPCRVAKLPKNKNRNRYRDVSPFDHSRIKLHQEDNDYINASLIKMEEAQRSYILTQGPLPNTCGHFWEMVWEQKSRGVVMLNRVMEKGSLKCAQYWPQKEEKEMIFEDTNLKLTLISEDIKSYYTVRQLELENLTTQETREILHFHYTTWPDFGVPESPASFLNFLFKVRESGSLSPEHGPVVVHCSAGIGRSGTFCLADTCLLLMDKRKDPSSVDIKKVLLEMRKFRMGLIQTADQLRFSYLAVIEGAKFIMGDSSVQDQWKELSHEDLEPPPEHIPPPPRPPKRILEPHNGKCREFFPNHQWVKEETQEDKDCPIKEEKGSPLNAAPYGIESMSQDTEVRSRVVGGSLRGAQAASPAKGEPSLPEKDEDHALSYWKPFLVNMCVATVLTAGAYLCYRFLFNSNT
As to the kind of experiment: Inhibitory activity tested against Protein-tyrosine phosphatase 1B (PTP1B).

In assay [2] the target is T2, Tyrosine-protein phosphatase non-receptor type 2 (Homo sapiens, UniProt P17706).
T2 sequence (P17706 whole entry): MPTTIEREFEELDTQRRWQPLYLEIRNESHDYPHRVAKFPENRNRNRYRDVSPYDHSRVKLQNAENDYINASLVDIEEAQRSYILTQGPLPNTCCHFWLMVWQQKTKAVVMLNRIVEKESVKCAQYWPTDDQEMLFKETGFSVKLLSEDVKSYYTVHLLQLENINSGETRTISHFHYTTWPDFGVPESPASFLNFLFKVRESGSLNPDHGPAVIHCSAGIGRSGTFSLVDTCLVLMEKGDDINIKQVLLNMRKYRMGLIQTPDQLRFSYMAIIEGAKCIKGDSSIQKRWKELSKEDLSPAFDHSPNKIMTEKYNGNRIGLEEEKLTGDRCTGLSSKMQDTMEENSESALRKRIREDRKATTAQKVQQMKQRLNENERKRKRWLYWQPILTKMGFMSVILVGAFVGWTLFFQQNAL
Nature of the assay: Inhibitory activity tested against T-cell Protein tyrosine phosphatase 2 (TCPTP).

The nature of assay [3]: Inhibition of SHP-2 phosphatase.
Assay [4] addresses T3, M-phase inducer phosphatase 3 (Homo sapiens, UniProt P30307).
T3 sequence (P30307 whole entry): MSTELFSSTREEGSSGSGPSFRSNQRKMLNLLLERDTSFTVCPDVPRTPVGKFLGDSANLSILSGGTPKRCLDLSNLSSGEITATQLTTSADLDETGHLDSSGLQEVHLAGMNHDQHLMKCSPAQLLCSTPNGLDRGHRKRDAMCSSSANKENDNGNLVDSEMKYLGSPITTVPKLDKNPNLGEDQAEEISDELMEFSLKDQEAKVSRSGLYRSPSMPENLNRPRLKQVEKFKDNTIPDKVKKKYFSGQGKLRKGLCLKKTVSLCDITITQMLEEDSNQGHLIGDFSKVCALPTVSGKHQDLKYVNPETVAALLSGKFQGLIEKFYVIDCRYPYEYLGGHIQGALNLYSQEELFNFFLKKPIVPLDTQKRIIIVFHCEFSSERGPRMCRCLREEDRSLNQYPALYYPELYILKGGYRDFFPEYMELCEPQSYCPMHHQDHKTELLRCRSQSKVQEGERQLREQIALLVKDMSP
As to the kind of experiment: Inhibition of Cell division cycle 25 (Cdc25) phosphatase.

Assay [5] addresses T4, Receptor-type tyrosine-protein phosphatase C (Homo sapiens, UniProt P08575).
T4 sequence (P08575 whole entry): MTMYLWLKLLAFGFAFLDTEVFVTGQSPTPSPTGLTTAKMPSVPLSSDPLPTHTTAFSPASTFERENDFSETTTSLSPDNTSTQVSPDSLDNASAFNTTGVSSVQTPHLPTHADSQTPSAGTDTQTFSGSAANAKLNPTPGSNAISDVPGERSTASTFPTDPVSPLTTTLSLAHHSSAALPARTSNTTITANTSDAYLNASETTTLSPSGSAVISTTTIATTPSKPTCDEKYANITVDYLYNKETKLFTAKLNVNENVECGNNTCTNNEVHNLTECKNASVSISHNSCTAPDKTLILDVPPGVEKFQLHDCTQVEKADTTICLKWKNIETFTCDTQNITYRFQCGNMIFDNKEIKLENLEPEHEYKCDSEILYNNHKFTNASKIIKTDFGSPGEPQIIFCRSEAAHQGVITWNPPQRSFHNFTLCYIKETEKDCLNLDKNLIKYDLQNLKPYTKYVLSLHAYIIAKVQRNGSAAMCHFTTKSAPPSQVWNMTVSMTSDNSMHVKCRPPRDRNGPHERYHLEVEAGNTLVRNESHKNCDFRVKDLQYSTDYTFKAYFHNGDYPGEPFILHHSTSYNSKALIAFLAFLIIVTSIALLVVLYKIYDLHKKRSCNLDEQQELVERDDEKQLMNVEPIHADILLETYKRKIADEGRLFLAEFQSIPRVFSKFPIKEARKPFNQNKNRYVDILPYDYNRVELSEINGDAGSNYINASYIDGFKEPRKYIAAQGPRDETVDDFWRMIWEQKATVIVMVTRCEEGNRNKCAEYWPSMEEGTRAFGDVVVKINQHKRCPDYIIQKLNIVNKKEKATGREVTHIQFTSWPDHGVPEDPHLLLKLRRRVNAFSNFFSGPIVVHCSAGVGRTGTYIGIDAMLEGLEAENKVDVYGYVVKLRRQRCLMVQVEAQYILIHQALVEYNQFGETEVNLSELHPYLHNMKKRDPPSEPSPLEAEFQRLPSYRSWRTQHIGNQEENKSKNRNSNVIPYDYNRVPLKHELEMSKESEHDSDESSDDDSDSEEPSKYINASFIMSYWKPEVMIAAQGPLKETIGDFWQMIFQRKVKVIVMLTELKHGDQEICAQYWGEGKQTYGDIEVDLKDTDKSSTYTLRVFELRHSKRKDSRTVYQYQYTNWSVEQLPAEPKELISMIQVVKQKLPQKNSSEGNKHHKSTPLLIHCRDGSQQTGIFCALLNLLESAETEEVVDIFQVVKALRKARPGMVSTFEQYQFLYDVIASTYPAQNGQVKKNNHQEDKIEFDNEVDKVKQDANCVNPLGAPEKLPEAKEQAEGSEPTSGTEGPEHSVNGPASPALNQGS
Nature of the assay: Inhibition of common leukocyte antigen CD45 phosphatase.

Assay [6] is described as follows: Inhibition of LAR (leukocyte common antigen-related) phosphatase.

SMILES strings stand for the structures.

As usually defined, the Ki is a dissociation constant, usually derived from enzyme kinetics or from competition with a known ligand. Lower therefore signals tighter binding.

With `CCc1cc(CC(NC(C)=O)C(=O)NCCCCC(=O)N[C@@H](CCC(N)=O)C(=O)O)ccc1N(C(=O)C(=O)O)c1ccccc1C(=O)O` (stereo not given in full), the Ki was found to be 330 nM in assay [1] and 270 nM in assay [2].

For `CCc1cc(CC(NC(C)=O)C(=O)NCc2ccc(OC)cc2)ccc1N(C(=O)C(=O)O)c1ccccc1C(=O)O` (stereo not given), the figures for the Ki in assay [1] and in assay [2] were 4700 nM and 3600 nM, respectively.

Consider `CCc1cc(CC(NC(C)=O)C(=O)NCCCCC(=O)N[C@@H](CCS(C)(=O)=O)C(=O)O)ccc1N(C(=O)C(=O)O)c1ccccc1C(=O)O` (stereo not given in full), for which the Ki in assay [1] stood at 470 nM; in assay [2] it was 370 nM.

In the case of `CCc1cc(CC(NC(C)=O)C(=O)NCCCCC(=O)N[C@@H](CCCCN)C(=O)O)ccc1N(C(=O)C(=O)O)c1ccccc1C(=O)O` (stereo not given in full), the figures for the Ki in assay [1] and in assay [2] were 710 nM and 820 nM, respectively.

For `CCSCC[C@H](NC(=O)CCCCNC(=O)C(Cc1ccc(N(C(=O)C(=O)O)c2ccccc2C(=O)O)c(CC)c1)NC(C)=O)C(=O)O` (stereo not given in full), the Ki was 130 nM in assay [1] and 510 nM in assay [2].

Turning to `CCCC[C@H](NC(=O)CCCCNC(=O)C(Cc1ccc(N(C(=O)C(=O)O)c2ccccc2C(=O)O)c(CC)c1)NC(C)=O)C(=O)O` (stereo not given in full), the Ki in assay [1] is 120 nM; in assay [2], 240 nM.

Take `CCc1cc(CC(NC(C)=O)C(=O)NCCCCC(=O)N[C@@H](CCSC)C(=O)O)ccc1N(C(=O)C(=O)O)c1ccccc1C(=O)O` (stereo not given in full): the Ki in assay [3] is 73200 nM; in assay [4], greater than 300000 nM; in assay [5], greater than 300000 nM; in assay [6], 8750 nM.

With `CCc1cc(CC(NC(C)=O)C(=O)NCCCCC(=O)NC(Cc2ccccc2)C(N)=O)ccc1N(C(=O)C(=O)O)c1ccccc1C(=O)O` (stereo not given), the Ki in assay [1] was found to be 1300 nM; in assay [2] it was 700 nM.

As for `CCc1cc(CC(NC(C)=O)C(=O)NCCCCC(=O)N[C@@H](Cc2ccccc2)C(=O)O)ccc1N(C(=O)C(=O)O)c1ccccc1C(=O)O` (stereo not given in full), the Ki in assay [1] was 140 nM; in assay [2], 160 nM.

`CCc1cc(CC(NC(C)=O)C(=O)NCCCCC(=O)N[C@H](C(=O)O)C2CCCCC2)ccc1N(C(=O)C(=O)O)c1ccccc1C(=O)O` (stereo not given in full): the Ki was determined as 250 nM in assay [1] and 290 nM in assay [2].

Regarding `CCc1cc(CC(NC(C)=O)C(=O)NCCCCC(=O)N[C@@H](CCSC)C(=O)OC)ccc1N(C(=O)C(=O)O)c1ccccc1C(=O)O` (stereo not given in full), the figures for the inhibition constant Ki in assay [1] and in assay [2] were 540 nM and 670 nM, respectively.

Take `CCc1cc(CC(NC(C)=O)C(=O)NCCCCC(=O)NCCc2ccccc2)ccc1N(C(=O)C(=O)O)c1ccccc1C(=O)O` (stereo not given): the results for the Ki in assay [1] and in assay [2] were 3400 nM and 1400 nM, respectively.

Consider `CCc1cc(CC(NC(C)=O)C(=O)NCCCCC(=O)N[C@H](C(=O)O)C(C)CC)ccc1N(C(=O)C(=O)O)c1ccccc1C(=O)O` (stereo not given in full), for which the inhibition constant Ki in assay [1] is 430 nM; in assay [2] it was 400 nM.

Take `CCc1cc(CC(NC(C)=O)C(=O)NCc2ccc(Cl)cc2)ccc1N(C(=O)C(=O)O)c1ccccc1C(=O)O` (stereo not given): the Ki in assay [1] stood at 1200 nM; in assay [2] it was 1500 nM.

Take `CCc1cc(CC(NC(C)=O)C(=O)NCCCCC(=O)N[C@H](CCSC)C(=O)O)ccc1N(C(=O)C(=O)O)c1ccccc1C(=O)O` (stereo not given in full): the Ki in assay [1] was found to be 1700 nM.

As to `CCc1cc(CC(NC(C)=O)C(=O)NCc2ccc([N+](=O)[O-])cc2)ccc1N(C(=O)C(=O)O)c1ccccc1C(=O)O` (stereo not given), the Ki was determined as 540 nM in assay [1] and 450 nM in assay [2].

As to `CCc1cc(CC(NC(C)=O)C(=O)NCCCCC(=O)O)ccc1N(C(=O)C(=O)O)c1ccccc1C(=O)O` (stereo not given), the Ki in assay [1] worked out at 2500 nM; in assay [2], 2200 nM.
